Legend:
Experiment in all cases: relative viability (nuclei count vs DMSO), 5 days (fraction); higher = more cells survive
NCI-H1395 = test system: NCI-H1395
Summary of the method: (§1)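 Relative viability was taken as the ratio of nuclei in treated wells to nuclei in vehicle wells. Lung cancer cell lines in 1536-well plates received compounds by pin tool one day after seeding, either one drug alone or a fixed anchor-drug dose plus five library-drug doses (not always all listed) in √10 steps. Nuclei were counted on 4× images after 5 days of treatment, and values are medians of duplicate plates.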

NCI-H1993 = test system: NCI-H1993
Summary of the method: as §1

NCI-H2170 = test system: NCI-H2170
Summary of the method: as §1

NCI-H3122 = test system: NCI-H3122
Summary of the method: as §1

NCI-H2228 = test system: NCI-H2228
Summary of the method: as §1

HOP-62 = test system: HOP-62
Summary of the method: as §1

NCI-H2342 = test system: NCI-H2342
Summary of the method: as §1

NCI-H2085 = test system: NCI-H2085
Summary of the method: as §1

ChaGo-K-1 = test system: ChaGo-K-1
Summary of the method: as §1

SK-LU-1 = test system: SK-LU-1
Summary of the method: as §1

LCLC-97TM1 = test system: LCLC-97TM1
Summary of the method: as §1

NCI-H520 = test system: NCI-H520
Summary of the method: as §1

NCI-H2126 = test system: NCI-H2126
Summary of the method: as §1

NCI-H1975 = test system: NCI-H1975
Summary of the method: as §1

LCLC-103H = test system: LCLC-103H
Summary of the method: as §1

NCI-H647 = test system: NCI-H647
Summary of the method: as §1

LOU-NH91 = test system: LOU-NH91
Summary of the method: as §1

NCI-H2405 = test system: NCI-H2405
Summary of the method: as §1

HCC-44 = test system: HCC-44
Summary of the method: as §1

EMC-BAC-2 = test system: EMC-BAC-2
Summary of the method: as §1

EPLC-272H = test system: EPLC-272H
Summary of the method: as §1

NCI-H460 = test system: NCI-H460
Summary of the method: as §1

NCI-H322M = test system: NCI-H322M
Summary of the method: as §1

Oc1nc(-c2ccc(C(F)(F)F)cc2)nc2c1CSCC2 [XAV939] + Nc1nc2[nH]cc(CCc3ccc(C(=O)N[C@@H](CCC(=O)O)C(=O)O)cc3)c2c(=O)[nH]1 [Pemetrexed] (partner 0.2 µM)
relative viability (NCI-H1395; first compound 0.08 µM): 0.875 | relative viability (NCI-H1395; first compound 0.253 µM): 0.832 | relative viability (NCI-H1395; first compound 0.8 µM): 0.805 | relative viability (NCI-H1395; first compound 2.53 µM): 0.908 | relative viability (NCI-H1993; first compound 0.08 µM): 0.575 | relative viability (NCI-H1993; first compound 0.253 µM): 0.471 | relative viability (NCI-H1993; first compound 0.8 µM): 0.536 | relative viability (NCI-H1993; first compound 2.53 µM): 0.541 | relative viability (NCI-H2170; first compound 0.08 µM): 0.255 | relative viability (NCI-H2170; first compound 0.253 µM): 0.246 | relative viability (NCI-H2170; first compound 0.8 µM): 0.265 | relative viability (NCI-H2170; first compound 2.53 µM): 0.258 | relative viability (NCI-H3122; first compound 0.08 µM): 0.211 | relative viability (NCI-H3122; first compound 0.253 µM): 0.19 | relative viability (NCI-H3122; first compound 0.8 µM): 0.198 | relative viability (NCI-H3122; first compound 2.53 µM): 0.178 | relative viability (NCI-H2228; first compound 0.08 µM): 0.332 | relative viability (NCI-H2228; first compound 0.253 µM): 0.341 | relative viability (NCI-H2228; first compound 0.8 µM): 0.29 | relative viability (NCI-H2228; first compound 2.53 µM): 0.271 | relative viability (HOP-62; first compound 0.08 µM): 0.347 | relative viability (HOP-62; first compound 0.253 µM): 0.287 | relative viability (HOP-62; first compound 0.8 µM): 0.292 | relative viability (HOP-62; first compound 2.53 µM): 0.215 | relative viability (NCI-H2342; first compound 0.08 µM): 0.784 | relative viability (NCI-H2342; first compound 0.253 µM): 0.662 | relative viability (NCI-H2342; first compound 0.8 µM): 0.719 | relative viability (NCI-H2342; first compound 2.53 µM): 0.426 | relative viability (NCI-H2085; first compound 0.08 µM): 1.02 | relative viability (NCI-H2085; first compound 0.253 µM): 0.801 | relative viability (NCI-H2085; first compound 0.8 µM): 0.878 | relative viability (NCI-H2085; first compound 2.53 µM): 0.837 | relative viability (ChaGo-K-1; first compound 0.08 µM): 0.261 | relative viability (ChaGo-K-1; first compound 0.253 µM): 0.259 | relative viability (ChaGo-K-1; first compound 0.8 µM): 0.269 | relative viability (ChaGo-K-1; first compound 2.53 µM): 0.26 | relative viability (SK-LU-1; first compound 0.08 µM): 1.05 | relative viability (SK-LU-1; first compound 0.253 µM): 1 | relative viability (SK-LU-1; first compound 0.8 µM): 1.1 | relative viability (SK-LU-1; first compound 2.53 µM): 0.947 | relative viability (LCLC-97TM1; first compound 0.08 µM): 0.234 | relative viability (LCLC-97TM1; first compound 0.253 µM): 0.179 | relative viability (LCLC-97TM1; first compound 2.53 µM): 0.162 | relative viability (NCI-H520; first compound 0.08 µM): 0.757 | relative viability (NCI-H520; first compound 0.8 µM): 0.594 | relative viability (NCI-H520; first compound 2.53 µM): 0.626 | relative viability (NCI-H2126; first compound 0.08 µM): 0.671 | relative viability (NCI-H2126; first compound 0.253 µM): 0.542 | relative viability (NCI-H2126; first compound 0.8 µM): 0.665 | relative viability (NCI-H2126; first compound 2.53 µM): 0.598 | relative viability (NCI-H1975; first compound 0.08 µM): 0.27 | relative viability (NCI-H1975; first compound 0.253 µM): 0.273 | relative viability (NCI-H1975; first compound 0.8 µM): 0.286 | relative viability (NCI-H1975; first compound 2.53 µM): 0.246 | relative viability (LCLC-103H; first compound 0.08 µM): 0.448 | relative viability (LCLC-103H; first compound 0.253 µM): 0.405 | relative viability (LCLC-103H; first compound 0.8 µM): 0.519 | relative viability (LCLC-103H; first compound 2.53 µM): 0.472 | relative viability (NCI-H647; first compound 0.08 µM): 0.168 | relative viability (NCI-H647; first compound 0.253 µM): 0.179 | relative viability (NCI-H647; first compound 0.8 µM): 0.166 | relative viability (NCI-H647; first compound 2.53 µM): 0.146 | relative viability (LOU-NH91; first compound 0.08 µM): 0.461 | relative viability (LOU-NH91; first compound 0.253 µM): 0.359 | relative viability (LOU-NH91; first compound 0.8 µM): 0.391 | relative viability (LOU-NH91; first compound 2.53 µM): 0.349 | relative viability (NCI-H2405; first compound 0.08 µM): 0.972 | relative viability (NCI-H2405; first compound 0.253 µM): 0.992 | relative viability (NCI-H2405; first compound 0.8 µM): 0.945 | relative viability (NCI-H2405; first compound 2.53 µM): 0.94 | relative viability (HCC-44; first compound 0.08 µM): 0.614 | relative viability (HCC-44; first compound 0.253 µM): 0.59 | relative viability (HCC-44; first compound 0.8 µM): 0.636 | relative viability (HCC-44; first compound 2.53 µM): 0.616 | relative viability (EMC-BAC-2; first compound 0.08 µM): 0.454 | relative viability (EMC-BAC-2; first compound 0.253 µM): 0.399 | relative viability (EMC-BAC-2; first compound 0.8 µM): 0.412 | relative viability (EMC-BAC-2; first compound 2.53 µM): 0.344 | relative viability (EPLC-272H; first compound 0.08 µM): 0.312 | relative viability (EPLC-272H; first compound 0.253 µM): 0.238 | relative viability (EPLC-272H; first compound 0.8 µM): 0.511 | relative viability (EPLC-272H; first compound 2.53 µM): 0.308 | relative viability (NCI-H460; first compound 0.08 µM): 0.0608 | relative viability (NCI-H460; first compound 0.253 µM): 0.0511 | relative viability (NCI-H460; first compound 0.8 µM): 0.07 | relative viability (NCI-H460; first compound 2.53 µM): 0.0697 | relative viability (NCI-H322M; first compound 0.08 µM): 0.585 | relative viability (NCI-H322M; first compound 0.253 µM): 0.561 | relative viability (NCI-H322M; first compound 0.8 µM): 0.548 | relative viability (NCI-H322M; first compound 2.53 µM): 0.512
